Data on three compounds can be found in ChEMBL document CHEMBL1157449, “Development of a novel fluorescent probe for fluorescence correlation spectroscopic detection of kinase inhibitors” (Bioorg Med Chem Lett, 2008).

In test [1] the target is T1, Mitogen-activated protein kinase kinase kinase 5 (Homo sapiens, UniProt Q99683).
T1 sequence (Q99683 whole entry): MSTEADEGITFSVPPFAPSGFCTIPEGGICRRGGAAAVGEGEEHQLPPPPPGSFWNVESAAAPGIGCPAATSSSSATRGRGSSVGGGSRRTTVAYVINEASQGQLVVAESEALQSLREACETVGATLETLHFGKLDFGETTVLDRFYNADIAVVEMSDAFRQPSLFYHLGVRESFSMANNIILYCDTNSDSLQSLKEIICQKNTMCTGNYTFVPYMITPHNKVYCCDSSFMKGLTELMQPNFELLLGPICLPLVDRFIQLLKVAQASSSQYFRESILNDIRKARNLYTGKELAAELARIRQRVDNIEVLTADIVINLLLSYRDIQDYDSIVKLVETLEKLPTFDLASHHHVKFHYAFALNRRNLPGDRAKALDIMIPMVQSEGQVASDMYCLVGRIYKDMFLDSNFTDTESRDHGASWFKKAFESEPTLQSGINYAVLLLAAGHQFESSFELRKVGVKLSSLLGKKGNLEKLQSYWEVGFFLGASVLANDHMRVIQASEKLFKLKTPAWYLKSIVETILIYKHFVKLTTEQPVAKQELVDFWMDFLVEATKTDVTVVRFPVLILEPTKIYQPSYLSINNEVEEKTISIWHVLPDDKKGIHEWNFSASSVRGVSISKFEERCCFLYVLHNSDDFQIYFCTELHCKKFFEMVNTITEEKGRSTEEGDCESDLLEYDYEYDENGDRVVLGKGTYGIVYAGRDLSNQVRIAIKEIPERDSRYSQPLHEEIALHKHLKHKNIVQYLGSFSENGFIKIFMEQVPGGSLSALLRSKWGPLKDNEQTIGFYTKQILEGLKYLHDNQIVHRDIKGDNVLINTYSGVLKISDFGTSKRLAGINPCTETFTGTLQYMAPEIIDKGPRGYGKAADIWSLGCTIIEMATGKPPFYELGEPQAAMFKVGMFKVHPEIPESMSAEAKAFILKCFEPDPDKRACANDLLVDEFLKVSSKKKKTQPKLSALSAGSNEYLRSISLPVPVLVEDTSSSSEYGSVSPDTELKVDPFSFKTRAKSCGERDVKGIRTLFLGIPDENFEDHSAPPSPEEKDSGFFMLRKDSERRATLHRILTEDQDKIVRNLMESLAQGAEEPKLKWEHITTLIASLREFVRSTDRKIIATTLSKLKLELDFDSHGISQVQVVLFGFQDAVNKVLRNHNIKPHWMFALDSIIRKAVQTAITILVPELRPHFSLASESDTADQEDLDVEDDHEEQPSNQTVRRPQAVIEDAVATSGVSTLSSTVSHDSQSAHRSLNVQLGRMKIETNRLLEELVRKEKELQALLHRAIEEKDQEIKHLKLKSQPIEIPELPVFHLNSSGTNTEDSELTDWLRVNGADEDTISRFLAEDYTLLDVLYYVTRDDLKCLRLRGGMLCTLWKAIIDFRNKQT
Kind of test: Binding affinity to ASK1.

The target of test [2] is T1, Mitogen-activated protein kinase kinase kinase 5. As to the kind of experiment: Inhibition of ASK1 by luciferase assay.
Test [3] has the same target. As to the kind of experiment: Inhibition of ASK1 by fluorescence correlation spectroscopy.

Turning to `CO[C@@H]1[C@H](N(C)C(=O)COCCOCCNC(=O)c2ccc(-c3c4ccc(=[N+](C)C)cc-4oc4cc(N(C)C)ccc34)c(C(=O)O)c2)C[C@H]2O[C@]1(C)n1c3ccccc3c3c4c(c5c6ccccc6n2c5c31)C(=O)NC4`, in test [1], the Kd (commonly the concentration at which binding is half-saturated) was determined as 8 µM.
As for `NC1=NC(=O)/C(=C2\CCNC(=O)c3[nH]c(Br)cc32)N1` [HYMENIALDISINE], the IC50 (usually the concentration at which inhibition is half-maximal) in test [2] is 0.15 µM; in test [3], 7 µM.
The matching figures for `Cn1cc(/C=C2\C(=O)Nc3ccccc32)c2ccccc21`: 82.7 µM and greater than 100 µM.
